PubChem BioAssay AID517 (Columbia University Molecular Screening Center, 2006)
Activity calls are given as the source filed them.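 The calls were made as follows: active = activity score of 15 or more, from fitted potency or summed per-dose inhibition z-scores, roughly IC50 of 5 µM; inactive = the rest.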

System: HUVEC TNFalpha-induced E-selectin immunofluorescence imaging
Assay: E-selectin expression inhibitors, dose response, confirmation, imaging, HUVEC, immunofluorescence, TNFalpha stimulation (AID 517)

Row | Structure (SMILES) | IC50
1 | CCn1c(=O)n(CC(=O)N(C)Cc2ccccc2)c(=O)c2ccccc21 | > 8 µM (inactive)
2 | COc1ccc(Cl)cc1NC(=O)CSc1nncn1-c1cccnc1 | > 8 µM (inactive)
3 | CCOC(=O)c1sc(NC(=O)CSc2n[nH]c(-c3ccccc3)n2)c(C#N)c1C | > 8 µM (inactive)
4 | FC(F)Oc1cccc2cccnc12 | > 8 µM (inactive)
5 | Cc1cnc(NC(=O)CSc2nc3ccccc3c(=O)[nH]2)s1 | > 8 µM (inactive)
6 | COCCn1c(=O)[nH]c2cc(C(=O)NCc3cccnc3)ccc2c1=O | > 8 µM (inactive)
7 | Cc1c(NC2=NC3(CCCCC3)Cc3ccccc32)c(=O)n(-c2ccccc2)n1C | > 8 µM (inactive)
8 | Cc1c(O)c(CN2CCCC2)cc2c1oc(=O)c1ccccc12 | > 8 µM (inactive)
9 | O=C1CC(N2CCN(c3cccc(C(F)(F)F)c3)CC2)C(=O)N1c1ccccc1 (stereo unspecified) | > 8 µM (inactive)
10 | Cc1ccc(O)c(C(=O)c2cc(C#N)c(=O)n(CC3CCCO3)c2)c1 (stereo unspecified) | > 8 µM (inactive)
11 | COc1ccc(C(=O)CSc2nnc(C3CCCCC3)n2N)c(OC)c1 | > 8 µM (inactive)
12 | C[C@H]1CCC/C=C/C2C[C@H](O)CC2[C@H](O)/C=C/C(=O)O1 (stereo partly specified) | < 0.01 µM
13 | CC(C)C(C(=O)Nc1ccc2c(c1)OCO2)N1C(=O)c2ccccc2C1=O (stereo unspecified) | > 8 µM (inactive)
14 | Cc1ccc(Nc2nc(N)nc(CN3CCCCCC3)n2)cc1 | > 8 µM (inactive)
15 | Cc1cc(NC(=O)COC(=O)c2cccc(S(=O)(=O)N3CCOCC3)c2)no1 | > 8 µM (inactive)
16 | CCn1c(=N)n(CC(=O)c2ccco2)c2ccccc21 | > 8 µM (inactive)
17 | O=C1COc2ccc(C(=O)NCc3ccco3)cc2N1 | > 8 µM (inactive)
18 | O=C(O)C1C2CCC(C2)C1C(=O)NCCCn1ccnc1 (stereo unspecified) | > 8 µM (inactive)
19 | N#Cc1c(NCc2ccccc2)ccnc1NCc1cccnc1 | > 8 µM (inactive)
20 | COc1cccc2c1C(=O)c1c(O)c3c(c(O)c1C2=O)C[C@@](O)(C(C)=O)C[C@@H]3O[C@H]1C[C@H](N)[C@H](O)[C@H](C)O1 | 0.63 µM
21 | CCCCSc1nc(O)c(C2OC(=O)c3c2ccc(OC)c3OC)c(=O)n1C (stereo unspecified) | > 8 µM (inactive)
22 | Cc1ccc2[nH]c(=O)c(CN(CCc3ccccc3)Cc3nnnn3CC3CCCO3)cc2c1 (stereo unspecified) | > 8 µM (inactive)
23 | CCOC(=O)C1CCCN(C(=O)c2cc3c(=O)n4cccc(C)c4nc3n2C)C1 (stereo unspecified) | > 8 µM (inactive)

Row | Structure (SMILES) | IC50
24 | COc1ccc(OC)c2[nH]c(=O)c(CCNC(=O)CC(C)C)cc12 | > 8 µM (inactive)
25 | O=C(CSc1ccc(-c2ccccc2)nn1)N1CCOCC1 | > 8 µM (inactive)
26 | O=C(O)CC1CCCC(c2ccccc2)C1=O (stereo unspecified) | > 8 µM (inactive)
27 | COc1ccc(CCNC(=O)C2=COCCO2)cc1 | > 8 µM (inactive)
28 | O=C(COn1nnc2ccc(C(F)(F)F)cc21)Nc1nnc(-c2ccccc2)o1 | > 8 µM (inactive)
29 | C=CCOC(=O)COc1cc(C)cc2oc(=O)c3c(c12)CCC3 | > 8 µM (inactive)
30 | CC1CCN(C(=O)CSc2nc3ccccc3[nH]2)CC1 | > 8 µM (inactive)
31 | O=C(NCCN1CCOCC1)c1ccc(=O)oc1 | > 8 µM (inactive)
32 | COc1ccc(OC(=O)c2cc3ccccc3o2)cc1 | > 8 µM (inactive)
33 | C=CS(=O)(=O)c1ccc(Oc2ccc(S(=O)(=O)C=C)cc2)cc1 | 0.55 µM
34 | Cc1nc2ccccc2nc1OCC(=O)Nc1cc(C(F)(F)F)ccc1N1CCOCC1 | > 8 µM (inactive)
35 | CCN(CC)S(=O)(=O)c1ccc2[nH]cc(C(=O)NCCC3=CCCCC3)c(=O)c2c1 | > 8 µM (inactive)
36 | Cc1nnc(SCCn2c(N3CC(C)CC(C)C3)nc3c2c(=O)n(C)c(=O)n3C)s1 (stereo unspecified) | > 8 µM (inactive)
37 | Cc1ccc(SC(C)c2nc(-c3ccccc3)no2)cc1 (stereo unspecified) | > 8 µM (inactive)
38 | O=C(Cc1cccs1)NCc1ccc(F)cc1 | > 8 µM (inactive)
39 | CC1(C)CC(=O)C(C=NC(CCC(N)=O)C(=O)O)=C(O)C1 (stereo unspecified) | > 8 µM (inactive)
40 | Cc1cc(N2C(=O)C3C4C=CC(C4)C3C2=O)ccc1Br (stereo unspecified) | > 8 µM (inactive)
41 | O=C1CC(c2ccc(S(=O)(=O)N3CCN(c4ccccc4)CC3)cc2)CN1 (stereo unspecified) | > 8 µM (inactive)
42 | CN(C(=O)c1ccc2c(=O)n3c(nc2c1)CCCCC3)c1ccccc1 | > 8 µM (inactive)
43 | O=c1cc(NCc2ccccc2)nc2n1CCCS2 | > 8 µM (inactive)
44 | C=CCNc1nc(C)nc(OC)n1 | > 8 µM (inactive)
45 | CC1CCN(CCC(=O)Nc2ccc(Br)cc2)CC1 | > 8 µM (inactive)
46 | COc1ccc2c(C)nc(Nc3nc(C)cc(C)n3)nc2c1 | > 8 µM (inactive)

Row | Structure (SMILES) | IC50
47 | O=C(Nc1ccc(SC(F)F)cc1)c1ccc2nccnc2c1 | > 8 µM (inactive)
48 | Cc1ccc(N=C2NC(=O)CS2)c(C)c1 | > 8 µM (inactive)
49 | CC1CN(C(=O)CSc2nnc(-c3ccncc3)n2-c2ccccc2)CC(C)O1 (stereo unspecified) | > 8 µM (inactive)
50 | COC(=O)C1=C(C)NC(C)=C(C(=O)OC)C1C(=O)OC1CCCCC1=O (stereo unspecified) | > 8 µM (inactive)
51 | COc1ccccc1-c1c(C)nn2c(C)c(C(C)=O)cnc12 | > 8 µM (inactive)
52 | N#CCCn1cnc2ccccc21 | > 8 µM (inactive)
53 | COc1ccc(NC(=O)CSc2nnc(-c3ccccc3C)n2C)cc1 | > 8 µM (inactive)
54 | COc1cccc2c1C(=O)c1c(O)c3c(c(O)c1C2=O)C[C@@](O)(C(=O)CO)C[C@@H]3O[C@H]1C[C@H](N)[C@H](O)[C@H](C)O1 | 3.2 µM
55 | Cc1cc(C)n(C2=NS(=O)(=O)c3ccccc32)n1 | > 8 µM (inactive)
56 | O=C(Nc1cccc(F)c1)c1ccc2c(c1)OCO2 | > 8 µM (inactive)
57 | C=CCn1c(-c2ccccc2)n[nH]c1=S | > 8 µM (inactive)
58 | Cn1cccc1Cc1nnc(SCC(=O)N2CCOCC2)n1-c1ccc(F)cc1 | > 8 µM (inactive)
59 | CC1=CC=CC2=NC(=O)CC(C)(C(=O)N(CC(=O)NC(C)C)C3CCCC3)N12 (stereo unspecified) | > 8 µM (inactive)
60 | O=S1(=O)C=C(Sc2nc3ccccc3s2)c2ccccc21 | 1.85 µM
61 | COc1ccccc1OCC(O)COC(N)=O (stereo unspecified) | > 8 µM (inactive)
62 | CN(Cc1ccccc1)Cc1nc2c([nH]1)c(=O)[nH]c(=O)n2C | > 8 µM (inactive)
63 | O=C(NCCCN1CCCC1=O)c1cncc(Br)c1 | > 8 µM (inactive)
64 | COC(=O)CCC(=O)Nc1cccc(Br)c1 | > 8 µM (inactive)
65 | CC[C@H]1CN2CCc3cc(OC)c(OC)cc3[C@@H]2C[C@@H]1C[C@H]1NCCc2cc(OC)c(OC)cc21 | 0.08 µM
66 | COCCNC(=O)C1CCCN(c2ncccn2)C1 (stereo unspecified) | > 8 µM (inactive)
67 | CCN(CC(=O)NC(=O)NCc1ccco1)Cc1nc2ccccc2c(=O)[nH]1 | > 8 µM (inactive)
68 | OC1C[N+]2(CCCCC2)C1 | > 8 µM (inactive)
69 | Cc1cc2c(cc1C)-c1nnnn1C(C)(C)C2 | > 8 µM (inactive)

Row | Structure (SMILES) | IC50
70 | O=c1c2ccccc2nc(SCc2cn3ccsc3n2)n1-c1ccc(F)cc1 | > 8 µM (inactive)
71 | COc1ccc(Cc2nc3ccc(S(N)(=O)=O)cc3[nH]2)cc1OC | > 8 µM (inactive)
72 | O=C1c2ccccc2S(=O)(=O)N1Cc1nnc(-c2ccccc2Br)o1 | > 8 µM (inactive)
73 | COc1ccc(-c2nnc(-c3cccs3)o2)cc1OC | > 8 µM (inactive)
74 | O=C(c1ccc2c3c(cccc13)C(=O)N(O)C2=O)N1CCCCC1 | > 8 µM (inactive)
75 | O=C(OCc1ccc2c(c1)OCO2)c1ccc(S(=O)(=O)N2CCCCC2)cc1 | > 8 µM (inactive)
76 | Nc1c2c(nc3ccccc13)N(c1ccccc1)CC2 | > 8 µM (inactive)
77 | Cc1cc2oc(=O)cc(CN3CCCCC3)c2cc1C(C)C | > 8 µM (inactive)
78 | COc1ccc(CCn2c(O)c(C=NCc3cccnc3)c(=O)[nH]c2=O)cc1OC | > 8 µM (inactive)
79 | CC(C)Cn1c(=O)c(C(=O)Nc2ccccc2S(N)(=O)=O)c(O)c2ccccc21 | > 8 µM (inactive)
80 | CC1Oc2ccccc2N(CC(=O)N(Cc2ccccc2)Cc2ccccn2)C1=O (stereo unspecified) | > 8 µM (inactive)
81 | Cc1oc(-c2ccccc2Cl)nc1CSCC(=O)N1CCCC1 | > 8 µM (inactive)
82 | CCOC(=O)C1CCCN(C(=O)c2sc3nc(-c4ccccc4)cn3c2C)C1 (stereo unspecified) | > 8 µM (inactive)
83 | COc1ccc(CCN2C(=O)CC(N3CCN(S(=O)(=O)c4ccccc4)CC3)C2=O)cc1 (stereo unspecified) | > 8 µM (inactive)
84 | Cc1ccc(C)c(-n2c(Cc3cc(=O)[nH]c(=O)[nH]3)nnc2SCC(=O)NCc2ccco2)c1 | > 8 µM (inactive)
85 | CC(=O)Nc1sc2c(c1CN1CCN(c3ccccn3)CC1)CCCC2 | > 8 µM (inactive)
86 | CCN(CC)CCCNC(=O)c1cn(C)c2ccc(S(=O)(=O)N(C)C)cc2c1=O | > 8 µM (inactive)
87 | Cc1cc(NC(=O)CS(=O)(=O)c2cn(Cc3ccccc3Cl)c3ccccc23)no1 | > 8 µM (inactive)
88 | Fc1cc(F)c(F)c(SCCc2ccncc2)c1F | > 8 µM (inactive)
89 | CN(CCc1ccccn1)c1ncnc2[nH]ncc12 | > 8 µM (inactive)
90 | O=C(Nc1ccc2[nH]c3c(c2c1)CCCC3)c1ccco1 | > 8 µM (inactive)
91 | FC(F)Oc1ccc(-c2csc(Cc3nnc4n3CCCCC4)n2)cc1 | > 8 µM (inactive)
